In patent publication US20060167098A1, “Method for the treatment of diseases linked to an accumulation of triglycerides and cholesterol” (Institut National De La Sante ET De LA Recherche Medicale …, priority 2003, published 2006):

Tests used:
Type in all cases: in vivo
[1] = Body fat mass by DEXA in Swiss (lean) mice, standard diet, fasted 48 hours before measurement; details: for decrease of body fat mass: 100 mg/kg/day in drinking water, vs control; for decrease of body fat mass / body fat mass: fasted 48 h; for body fat mass: mean±SEM
Text: Six to 8 weeks old male (Crl:CD-1(ICR)BR) Swiss mice, and six to ten weeks old male RjOrl Swiss mice (i.e. lean mice) weighing 28 and 32 grams were purchased from Dépré (Saint Doulchard, France). Ten to 12 weeks old ob/ob male (C57BL/6-ob) mice (i.e. obese mice), weighing 40 to 44 grams were purchased from Janvier (Le-Genest-St-Isle, France). In one experiment, younger ob/ob mice (5-6 weeks old) weighing 25-26 grams were also studied. In genetically obese ob/ob mice, a mutation on the gene of leptin prevents the normal production of this hormone, thus increasing appetite and decreasing energy consumption (Friedman J. M., Halaas J. L., 1998, Nature 395 : 763-770). […] The animals were acclimatized for one to two weeks before the start of experiments.
D,L-β-Aminoisobutyric acid (BAIBA) was purchased from Sigma-Aldrich. BAIBA has been administered in drinking water at the dose of 100 mg/kg/day or 500 mg/kg/day for 6 weeks, 2 months or 4 months according to the experiments.
The in vivo determination of body fat mass in anesthetized mice has been performed by “DEXA” (Dual Energy X-ray Absorptiometry) (Pietriobelli A., Formica C., Wang Z., Heymsfield S. B., 1996, Am. J. Physiol. 271 (Endocrinol. Metab. 34): E941-E951)). […] It is noteworthy that DEXA also gives for each investigated animal its lean mass that is the total amount of water and proteins (in grams) in the body (excluding the head). Therefore, for a given animal, DEXA allows the determination of the percentage of body fat which is its body fat mass divided by the sum of its body lean and fat masses (fat mass/(lean mass+fat mass)). The “DEXA” apparatus was a Piximus® from Lunar Corporation (Madison, Wis.). Mice were anesthetized thanks to a mixture of xylazine and ketamine.
Procedure 2: the animals were fasted for 48 hours before DEXA measurements which have been performed 2 weeks (T2) and 6 weeks (T6) after starting the treatment. In this procedure, DEXA measurement before the beginning of treatment has not been performed. Comparisons of the different parameters (e.g. fat mass, body weight) between both groups were performed at T2 and at T6.
In a first series of experiments, the effects of 100 mg/kg/day of β-aminoisobutyric acid (BAIBA) on body fat were investigated in Swiss (lean) mice fed with a standard diet (A04 chow) and fasted for 48 hours before DEXA measurements. Mice were 6 to 8 weeks old at the beginning of the experiment. DEXA was performed twice after the initiation of the treatment. In this experiment, BAIBA decreased body fat mass by 31% and 25%, respectively after 2 and 6 weeks of treatment. The results in FIG. 1 indicate that: • after 2 weeks, body fat mass was 2.63±0.23 and 1.80±0.11 grams, respectively in control mice (n=7) and mice receiving BAIBA (n=7); • after 6 weeks, body fat mass was 3.40±0.27 and 2.56±0.32 grams, respectively in control mice and mice receiving BAIBA.

[2] = Liver histology, liver triglycerides and ALT in ob/ob mice treated for 4 months, not fasted; details: for plasma alanine aminotransferase (ALT): after 4 months
Experimental: Total lipids and triglycerides in the liver of animals were assessed according to a procedure partially reported by (Letteron P., Fromenty B., Terris B., Degott C., Pessayre D., 1996, J. Hepatol. 24 : 200-208). Briefly, after killing of the animals, livers were removed and homogenized in sterile water. Hepatic lipids were thus extracted by a mixture of chloroform and methanol (2/1; v/v). After removal of the aqueous phase, the organic phase (chloroform containing the lipids) was evaporated and the amount of lipids was determined by gravimetry. Lipids were subsequently resuspended in isopropanol (final concentration, ca. 10 mg/mL). After removal of the phopholipids by using aluminum hydroxide hydrate, triglycerides were determined colorimetrically by using periodate and the Nash's reagent (containing acetylacetone, ammonium acetate and isopropanol). The reaction generates diacetyldihydrolutidine which is assayed by spectrophotometry (λ=410 nm).
Plasma HDL-cholesterol and alanine aminotransferase (ALT) were measured on an automatic analyser (Olympus AU400®) with commercial kits (Olympus Diagnostica GmbH, references OSR6187 and OSR6107, respectively).
Finally, liver histology was performed according to regular procedure. Steatosis and fibrosis were assessed thanks to the Oil red O and Masson's trichrome stains, respectively, whereas necrosis and inflammation were determined thanks to the HPS (Hematoxylin-Phloxin-Saffron) stain, or the HE (Hematoxylin-Eosin) stain. In one experiment, perisinusoidal fibrosis was assessed with the Sirius Red stain.
In a second series of investigations, liver histology was studied in ob/ob mice treated for 4 months with β-aminoisobutyric acid, administered either at the usual dose (100 mg/kg/day) or at a higher dose (500 mg/kg/day). In this experiment, liver examination was performed in mice not submitted to a fasting period before sacrifice. The number of investigated animals were 6, 7 and 8, respectively in the control group and in the groups treated with 100 and 500 mg/kg/day of β-aminoisobutyric acid.

[3] = Plasma lipids in lean mice fed with a standard diet, 6 weeks, not fasted; details: 100 mg/kg/day 6 weeks
Experimental: Plasma lipids (triglycerides, total cholesterol, phospholipids) were measured on an automatic analyser (Hitachi 717®). The commercial kits used to assess triglycerides, total cholesterol and phospholipids on this analyser were all from bioMérieux (references 61238, 61219 and 61491, respectively). Plasma non esterified fatty acids (NEFA) were assessed by using a commercial kit (Wako, reference 994-75409). Hepatic and plasma lipids were performed at the end of six weeks of treatment in animals that have been fasted for 48 hours. Triglycerides and HDL-cholesterol were also assessed after 2 months (in the fed state) or after 4 months of treatment (after an overnight fast).
Plasma lipids were assessed in lean mice fed with a standard diet and receiving or not of 100 mg/kg/day of β-aminoisobutyric acid (BAIBA) in the drinking water during 6 weeks. There were six animals per group. At the end of the 6 weeks of treatment, mice were not fasted and samples of blood were then collected for the assessment of plasma triglycerides and total cholesterol. […] Indeed, plasma triglycerides were 3.18±0.23 and 2.95±0.21 mmol/L, respectively in control and treated mice whereas plasma total cholesterol was 5.35±0.35 and 5.23±0.28 mmol/L, respectively in control and treated mice.

## CC(CN)C(=O)O (racemic) [BAIBA, D,L-β-Aminoisobutyric acid]
[1]; after 2 weeks
  decrease of body fat mass: 31%
[1]; after 6 weeks
  decrease of body fat mass: 25%
[1]; 100 mg/kg/day, after 2 and 6 weeks
  body weight vs control mice: not significantly different
[1]; 100 mg/kg/day, after 2 weeks
  body fat mass: 1.80±0.11 grams
[1]; 100 mg/kg/day, after 6 weeks
  body fat mass: 2.56±0.32 grams
[2]; 100 mg/kg/day, 4 months
  liver triglycerides: 721±16 mg/g of lipids
  mice with inflammation: 43%
  mice with necrosis: 43%
  mice with perisinusoidal fibrosis: 29%
  mice with portal or perivenular fibrosis: 29%
[2]; 100 mg/kg/day
  plasma alanine aminotransferase (ALT): 290±61 U/L
[2]; 500 mg/kg/day, 4 months
  liver triglycerides: 707±29 mg/g of lipids
[2]; 500 mg/kg/day
  plasma alanine aminotransferase (ALT): 258±27 U/L
[2]; 100 and 500 mg/kg/day, 4 months, not fasted
  extent of steatosis vs control: about the same extent
[3]
  plasma total cholesterol: 5.23 ± 0.28 mmol/L
  plasma triglycerides: 2.95 ± 0.21 mmol/L
